Key:
[1] = system: male albino mice; assay: Allyl alcohol-induced liver injury in mice (SGPT); assay type: in vivo; conditions: allyl alcohol alone, 50 mg/kg single intraperitoneal dose, 4 hours
Description: Influence of vitamin E phosphate/phosphatidylcholine liposomes (see example 1) on Allyl alcohol-induced liver injury was evaluated in male albino mice.

[2] = system: Liver cells; assay: Phosphatidylcholine formation in liver cells dysfunctional due to ethanol exposure; assay type: cell-based; conditions: cells exposed to ethanol
Description: Liver cells which had become dysfunctional due to exposure to ethanol were incubated 24 hours with vitamin E phosphate/phosphatidylcholine liposomes. The pmoles of phosphatidylcholine formed per minute/mg protein was then measured with the following results: […]

[3] = system: cultured liver cells; assay: Reversal of ethanol damage in cultured liver cells (phosphatidylcholine biosynthesis); assay type: cell-based; conditions: 96 h
Description: The use of vitamin E phosphate/phosphatidylcholine to effect reversal of damage from ethanol on liver cells was then studied. The cultured liver cells were incubated with 25 mM or 50 mM ethanol for 96 hours, at which time there is significant reduction in liver cell function (phosphatidylcholine biosynthesis). The effect of adding vitamin E phosphate/phosphatdylcholine after 72 hours was studied, and 24 hours later (96 hours after initial exposure to ethanol) values were obtained.

[4] = system: isolated liver cells (1000×g cell fraction); assay type: cell-based; conditions: phosphatidylcholine 100 μM, vitamin E phosphate 50 μm; for LCLP % control + SEM: in presence of 1 mM iron
[5] = system: Liver cells; assay: Incorporation of labeled choline into phosphatidylcholine (PC biosynthesis) by liver cells with iron; assay type: cell-based
From the text: The study of effects on liver cells was also considered based on evaluation of effect on increase in the incorporation of labeled choline into phosphatidylcholine (phosphatidylcholine biosynthesis) by liver cells. Vitamin E phosphate/phosphatidylcholine produced greater beneficial effects than either vitamin E phosphate or phosphatidylcholine. [table]

[6] = Precipitation in the presence of divalent metal salts; assay type: physicochemical
From the text: Liposomes were made using salts of the vitamin E phosphate and phosphatidylcholine. These salts were protected by liposomes to avoid precipitation in the presence of 2^+ metal ions.

[7] = in presence of 1 mM iron, phosphatidylcholine 100 μM, vitamin E phosphate 50 μm

C=CCO [Allyl alcohol]
SGPT % of control ± SEM [1]: 330 ± 15 % of control

CCO [ETOH, ethanol]
pmoles of phosphatidylcholine formed per minute/mg protein [2]: 25 pmoles per minute/mg protein
pmoles of phosphatidylcholine formed per minute/mg protein ([2]; then incubated 24 hours in water): 27 pmoles per minute/mg protein
phosphatidylcholine biosynthesis % control ± SEM ([3]; 25 mM ethanol alone): 38 ± 2 % control
phosphatidylcholine biosynthesis % control ± SEM ([3]; 50 mM ethanol alone): 22 ± 1 % control

Cc1c(C)c2c(c(C)c1OP(=O)(O)O)CCC(C)(CCCC(C)CCCC(C)CCCC(C)C)O2 (stereo not shown) [VEP, vitamin E phosphate]
LCLP % control + SEM [4]: 167 ± 3 % control
iron-dependent lipid peroxidation in isolated liver cells (result in words) [4]: significantly reduced
PC biosynthesis % control + SEM [5, 7]: 145 ± 4 % control
behaviour in the presence of divalent metal salts [6]: precipitated

[Fe] [iron]
PC biosynthesis % control + SEM ([5]; 1 mM iron alone): 254 ± 9 % control

phosphatidylcholine [PC]
LCLP % control + SEM [4]: 281 ± 4 % control
iron-dependent lipid peroxidation in isolated liver cells (result in words) [4]: significantly reduced
PC biosynthesis % control + SEM [5, 7]: 167 ± 4 % control
